According to ChEMBL document CHEMBL1201862, “PubChem BioAssay data set” (2004):
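Five concentrations, 48 hours, 96-well plates. GI50 = concentration required for 50% inhibition of growth.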 Activity calls are given as the source filed them. No stated cut-off is given here; in the data, active = GI50 up to about 1.1 µM and inactive = higher.

Tests used:
Test in all cases: growth of human tumour cells (NCI), 48 h
ACHN = system: ACHN
HCC 2998 = system: HCC 2998
RPMI-8226 = system: RPMI-8226
Hs-578T = system: Hs-578T
CAKI-1 = system: CAKI-1
PC-3 = system: PC-3
MDA-MB-435 = system: MDA-MB-435
UACC-62 = system: UACC-62
M14 = system: M14
SW-620 = system: SW-620
HOP-62 = system: HOP-62
KM12 = system: KM12
SR = system: SR
OVCAR-3 = system: OVCAR-3
UO-31 = system: UO-31
MDA-MB-231 = system: MDA-MB-231
NCI-H23 = system: NCI-H23
IGROV-1 = system: IGROV-1
SF-295 = system: SF-295
RXF 393 = system: RXF 393

Structure (SMILES) | GI50 (ACHN) | GI50 (HCC 2998) | GI50 (RPMI-8226) | GI50 (Hs-578T) | GI50 (CAKI-1) | GI50 (PC-3) | GI50 (MDA-MB-435) | GI50 (UACC-62) | GI50 (M14) | GI50 (SW-620) | GI50 (HOP-62) | GI50 (KM12) | GI50 (SR) | GI50 (OVCAR-3) | GI50 (UO-31) | GI50 (MDA-MB-231) | GI50 (NCI-H23) | GI50 (IGROV-1) | GI50 (SF-295) | GI50 (RXF 393)
CCOC(=O)Cc1nc2c(N)ncnc2n1C1OC(COC(C)=O)C(OC(C)=O)C1OC(C)=O (stereo not drawn) | > 100 µM (inactive) | > 100 µM (inactive) | > 100 µM (inactive) | > 100 µM (inactive) | > 100 µM (inactive) | > 100 µM (inactive) | > 100 µM (inactive) | > 100 µM (inactive) | > 100 µM (inactive) | > 100 µM (inactive) | > 100 µM (inactive) | > 100 µM (inactive) | > 100 µM (inactive) | > 100 µM (inactive) | > 100 µM (inactive) | > 100 µM (inactive) | > 100 µM (inactive) | > 100 µM (inactive) | > 100 µM (inactive) | –
CN1C(=O)c2cccc3cc([N+](=O)[O-])cc(c23)C1=O | > 10 µM (inactive) | > 10 µM (inactive) | > 10 µM (inactive) | > 10 µM (inactive) | > 10 µM (inactive) | > 10 µM (inactive) | > 10 µM (inactive) | > 10 µM (inactive) | > 10 µM (inactive) | > 10 µM (inactive) | > 10 µM (inactive) | > 10 µM (inactive) | > 10 µM (inactive) | > 10 µM (inactive) | – | > 10 µM (inactive) | 9.08 µM (inactive) | > 10 µM (inactive) | > 10 µM (inactive) | –
CC(=O)O[C@H]1CC[C@@]2(C)C(=CC[C@@H]3[C@@H]2CC[C@]2(C)c4nc(N)c(C#N)cc4C[C@@H]32)C1 | 26.4 µM (inactive) | > 55.3 µM (inactive) | 5.83 µM (inactive) | 24.9 µM (inactive) | > 100 µM (inactive) | 42.5 µM (inactive) | 33.7 µM (inactive) | 40.6 µM (inactive) | > 87.5 µM (inactive) | 43.4 µM (inactive) | 8.34 µM (inactive) | 55.1 µM (inactive) | – | 1.75 µM (inactive) | > 100 µM (inactive) | 44.2 µM (inactive) | 35 µM (inactive) | 34.3 µM (inactive) | 35.7 µM (inactive) | 10.7 µM (inactive)
CCCCCC/C=C\CCCCCCCCCc1cccc(OC)c1O | > 100 µM (inactive) | – | > 100 µM (inactive) | > 100 µM (inactive) | > 100 µM (inactive) | 63.8 µM (inactive) | > 100 µM (inactive) | > 100 µM (inactive) | > 100 µM (inactive) | > 100 µM (inactive) | > 100 µM (inactive) | 80 µM (inactive) | > 10 µM (inactive) | – | > 100 µM (inactive) | > 100 µM (inactive) | 86.9 µM (inactive) | > 100 µM (inactive) | > 100 µM (inactive) | 67.6 µM (inactive)
O=c1[nH]nc(Cc2ccc(Cl)cc2)n1CCO | > 100 µM (inactive) | > 100 µM (inactive) | > 100 µM (inactive) | > 100 µM (inactive) | > 100 µM (inactive) | > 100 µM (inactive) | > 100 µM (inactive) | > 100 µM (inactive) | > 100 µM (inactive) | > 100 µM (inactive) | – | > 100 µM (inactive) | – | > 100 µM (inactive) | > 100 µM (inactive) | > 100 µM (inactive) | > 100 µM (inactive) | > 100 µM (inactive) | > 100 µM (inactive) | –
CC1=C(C(=O)NCCCN(CCO)CCO)CC(C(=O)NCCCN(CCO)CCO)=C(C)N1 | 97.1 µM (inactive) | > 100 µM (inactive) | 76 µM (inactive) | 29.1 µM (inactive) | > 100 µM (inactive) | 59.8 µM (inactive) | 56 µM (inactive) | > 100 µM (inactive) | > 100 µM (inactive) | > 100 µM (inactive) | > 100 µM (inactive) | 85.1 µM (inactive) | – | > 100 µM (inactive) | 93.5 µM (inactive) | 40.7 µM (inactive) | > 100 µM (inactive) | > 100 µM (inactive) | > 100 µM (inactive) | 26.4 µM (inactive)
CN1C/C(=C\c2cccs2)C2=NN(C)C(c3cccs3)C2C1 (stereo not drawn) | > 100 µM (inactive) | 42.1 µM (inactive) | 24.8 µM (inactive) | > 100 µM (inactive) | > 100 µM (inactive) | 19 µM (inactive) | > 100 µM (inactive) | > 100 µM (inactive) | 97.7 µM (inactive) | > 100 µM (inactive) | > 100 µM (inactive) | > 100 µM (inactive) | – | 77.8 µM (inactive) | 75.7 µM (inactive) | 67.9 µM (inactive) | > 100 µM (inactive) | 32.4 µM (inactive) | > 100 µM (inactive) | > 100 µM (inactive)
CCOC(=O)C1CCCN1C(=O)c1ccccc1Cl (stereo not drawn) | > 100 µM (inactive) | > 100 µM (inactive) | > 100 µM (inactive) | > 100 µM (inactive) | > 100 µM (inactive) | – | > 100 µM (inactive) | 22 µM (inactive) | > 100 µM (inactive) | > 100 µM (inactive) | > 100 µM (inactive) | > 100 µM (inactive) | > 100 µM (inactive) | > 100 µM (inactive) | > 100 µM (inactive) | > 100 µM (inactive) | > 100 µM (inactive) | > 100 µM (inactive) | > 100 µM (inactive) | > 100 µM (inactive)
O=C(/C=N/O)c1c(-c2ccccc2)[nH]c(-c2ccccc2)c1-c1ccccc1 | 16 µM (inactive) | 34 µM (inactive) | 5.35 µM (inactive) | 20.9 µM (inactive) | 22.1 µM (inactive) | – | 14.4 µM (inactive) | 15.2 µM (inactive) | 31 µM (inactive) | 19.8 µM (inactive) | 44.4 µM (inactive) | 13.6 µM (inactive) | 0.0481 µM (active) | 13.1 µM (inactive) | 14.3 µM (inactive) | 13.3 µM (inactive) | 7.46 µM (inactive) | 13.8 µM (inactive) | 14.3 µM (inactive) | 12.5 µM (inactive)
COc1cc(O)c(/C=N/N=C(\N)NO)c(OC)c1 | 9.14 µM (inactive) | > 10 µM (inactive) | > 10 µM (inactive) | > 10 µM (inactive) | > 10 µM (inactive) | 6.18 µM (inactive) | > 10 µM (inactive) | 9.71 µM (inactive) | > 10 µM (inactive) | > 10 µM (inactive) | 9.93 µM (inactive) | 8.18 µM (inactive) | – | 5.5 µM (inactive) | > 10 µM (inactive) | > 10 µM (inactive) | > 10 µM (inactive) | > 10 µM (inactive) | 4.92 µM (inactive) | 8.3 µM (inactive)
O=c1[nH]c(=O)c2c([nH]1)[nH]c1ccccc12 | > 100 µM (inactive) | – | > 100 µM (inactive) | > 100 µM (inactive) | > 100 µM (inactive) | – | > 100 µM (inactive) | > 100 µM (inactive) | > 100 µM (inactive) | > 100 µM (inactive) | > 100 µM (inactive) | 37.8 µM (inactive) | > 100 µM (inactive) | 65.2 µM (inactive) | > 100 µM (inactive) | > 100 µM (inactive) | > 100 µM (inactive) | > 100 µM (inactive) | > 100 µM (inactive) | > 100 µM (inactive)
Cc1ccc2[nH]c3c(c(=O)n(C)c(=O)n3C)c2c1 | > 100 µM (inactive) | > 100 µM (inactive) | > 100 µM (inactive) | > 100 µM (inactive) | > 100 µM (inactive) | – | > 100 µM (inactive) | > 100 µM (inactive) | > 100 µM (inactive) | > 100 µM (inactive) | > 100 µM (inactive) | > 100 µM (inactive) | 84.9 µM (inactive) | – | > 100 µM (inactive) | > 100 µM (inactive) | > 100 µM (inactive) | > 100 µM (inactive) | > 100 µM (inactive) | > 10 µM (inactive)
Cn1c(=O)sc2cc(C(=S)N3CCCCC3)ccc21 | 96.2 µM (inactive) | – | 61 µM (inactive) | 30.8 µM (inactive) | 46.9 µM (inactive) | 94.6 µM (inactive) | > 100 µM (inactive) | > 100 µM (inactive) | > 100 µM (inactive) | > 100 µM (inactive) | > 100 µM (inactive) | > 100 µM (inactive) | 22 µM (inactive) | 69.2 µM (inactive) | – | 45.9 µM (inactive) | > 100 µM (inactive) | 23.2 µM (inactive) | 92.7 µM (inactive) | 38.8 µM (inactive)
CC(C)=CCC/C(C)=C/COc1c2ccoc2cc2oc(=O)ccc12 [BERGAMOTTIN] | 22.8 µM (inactive) | 28.2 µM (inactive) | 17.1 µM (inactive) | 48.1 µM (inactive) | 44 µM (inactive) | 29.9 µM (inactive) | 34.6 µM (inactive) | 10.7 µM (inactive) | 27.7 µM (inactive) | 37.8 µM (inactive) | 43.4 µM (inactive) | 32.7 µM (inactive) | 15.2 µM (inactive) | 25.4 µM (inactive) | 21.5 µM (inactive) | 24.4 µM (inactive) | 27.4 µM (inactive) | 39.5 µM (inactive) | 25.4 µM (inactive) | –
NS(=O)(=O)c1ccc(NC(=S)N/C=C2\C(=O)Oc3ccccc3C2=O)cc1 | 18.3 µM (inactive) | 34.8 µM (inactive) | 30.4 µM (inactive) | 17.5 µM (inactive) | 19.3 µM (inactive) | 36.1 µM (inactive) | 43.5 µM (inactive) | 34.8 µM (inactive) | 21.3 µM (inactive) | 40.1 µM (inactive) | 20.8 µM (inactive) | 16.5 µM (inactive) | – | 27.2 µM (inactive) | 17.6 µM (inactive) | 16 µM (inactive) | 38.5 µM (inactive) | 18.9 µM (inactive) | 32 µM (inactive) | 12.2 µM (inactive)
